According to patent US6284734A, “Inhibitors against prostate-specific antigen” (JCR Pharmaceuticals Co., Ltd., priority 1997, dated 2001):
No end group written: not given here.

Assays:
PSA [1] = target: T1, PSA (Homo sapiens, UniProt P07288); assay: PSA activity assay with Pro-Phe-Arg-MCA substrate, residual activity in coexistence of peptides; format: biochemical; details: enzyme added PSA, 100% without any Peptide
T1 construct: Using PSA as purified from human urine or seminal plasma; from tissue; host or cells: human urine or seminal plasma
T1 sequence (P07288 25-261): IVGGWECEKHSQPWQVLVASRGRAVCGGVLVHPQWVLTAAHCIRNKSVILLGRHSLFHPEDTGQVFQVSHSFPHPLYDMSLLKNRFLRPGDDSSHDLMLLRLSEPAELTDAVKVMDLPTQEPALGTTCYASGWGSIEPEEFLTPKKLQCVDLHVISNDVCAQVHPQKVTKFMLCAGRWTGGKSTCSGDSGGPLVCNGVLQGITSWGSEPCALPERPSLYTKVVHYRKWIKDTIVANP
Protocol: Then, investigation was conducted into whether or not these peptides act to inhibit the PSA activity.
While using […] of 100 μM or 10 μM Pro-Phe-Arg-MCA (supplied by Peptide Research. Institute of Japan) as a substrate, 0.1 ml of 100 μM of each of Peptides 1 to 5 was mixed with the substrate and 0.7 ml of 0.1M Tris-hydrochloride buffer (pH 8.0) to allow the reaction to proceed at 37° C. for 5 min, followed by addition of 0.1 ml of 0.12 mg/ml PSA solution. The reaction solution was subjected to time-course measurement of fluorescence intensity (Ex380 nm, Em460nm) at 37° C. for 3 min, and the inhibitory activity value was determined from a slope of the straight line. […] In the above experiments, Pro-Phe-Arg-MCA, Peptides 1 to 5 PSA and kallikrein were used after being dissolved in 0.1M Tris-hydrochloride buffer (pH 8.0).
These findings are in good agreement with the fact that PSA a protease belonging to the kallikrein family .

PSA [2] = target: T1, PSA; assay: Degradation of r-IGFBP3 by PSA, SDS electrophoresis and Western blotting with densitometry; format: biochemical; details: relative to r-IGFBP3 alone (100.0); r-IGFBP3 + PSA 50.0; 4 nmol Peptide 4
Protocol: And PSA degrades r-IGFB3 into fragments, whereby its degradation process can be confirmed by means of SDS-electrophoresis and Western blotting.
A specimen was prepared by dissolving 0.57 μg of PSA and 2.0 μg of r-IGFBP3 (manufactured by Upstate Co. of USA) in 0.1M Tris-hydrochloride buffer (pH 8.0), followed by reaction at 37° C. for 16 hrs, while another specimen was prepared by dissolving 0.57 μg of PSA, 2.0 μg of r-TGFBP3 (manufactured by Upstate Co. of USA) and 4 nmol of Peptide 4 in 0.1M Tris-hydrochloride buffer (pH 8.0), followed by reaction at 37° C. for 16 hrs. Each of the specimens was subjected to a 4 to 20% gradient gel to conduct SDS electrophoresis under non-reduction in the conditions described by Laemmli et al. (Iqature, 227: 680-685, 1970). After electrophoresis, separated proteins were transferred to a nitrocellulose membrane to carry out Western blotting using anti-IGFBP3 antibody (produced by Biogenesis Co. of USA) as a primary antibody and anti-rabbit antibody (produced by Promega Co. of USA) labeled with horseradish peroxidase (HRP) as a secondary antibody. The HRP activity was detected by chemiluminescence (Renaissance Western Blot Chemiluminescence Reagent, NEN™ produced by Life Science Products Co. of USA), and the protein bands as detected were quantitatively determined by use of a densitometer.

[3] = column A, Substrate:Peptide molar ratio 1:1
[4] = column B, Substrate:Peptide molar ratio 1:10

Sequence | Residual activity rate (%) after addition of Peptides (PSA [1]; [3]) | Residual activity rate (%) after addition of Peptides (PSA [1]; [4]) | Residual rate % of the 50 kDa band (PSA [2])
VSSTHRVSDPKF [Peptide 2, Val(127)-Ser-Ser-Thr-His-Arg-Val-Ser-Asp-Pro-Lys-Phe(138)] | 87.5% | 104.8% | 
GFYKKKQSR [Peptide 4, Gly(217)-Phe-Tyr-Lys-Lys-Lys-Gln-Ser-Arg(225)] | 66.5% | 46.6% | 65.1%
LNHLKFLNVL [Peptide 3, Leu(194)-Asn-His-Leu-Lys-Phe-Leu-Asn-val-Leu(203)] | 83.5% | 73.3% | 

The remaining lines, values ahead:

Residual activity rate (%) after addition of Peptides (PSA [1]; [3]) | Residual activity rate (%) after addition of Peptides (PSA [1]; [4]) | Residual rate % of the 50 kDa band (PSA [2]) | Sequence
75.1% | 84.8% |  | PSKGRKRGFM [Peptide 5, Pro(226)-Ser-Lys-Gly-Arg-Lys-Arg-Gly-Phe-Met(235)]
107.4% | 100.7% |  | VNASAVSRLRAYLLP [Peptide 1, val(88)-Asn-Ala-Ser-Ala-Val-Ser-Arg-Leu-Arg-Ala-Tyr-Leu-Leu-Pro(102)]
